The target in the assay is T1, Microphthalmia-associated transcription factor (Homo sapiens, UniProt O75030).
T1 sequence (O75030 whole entry): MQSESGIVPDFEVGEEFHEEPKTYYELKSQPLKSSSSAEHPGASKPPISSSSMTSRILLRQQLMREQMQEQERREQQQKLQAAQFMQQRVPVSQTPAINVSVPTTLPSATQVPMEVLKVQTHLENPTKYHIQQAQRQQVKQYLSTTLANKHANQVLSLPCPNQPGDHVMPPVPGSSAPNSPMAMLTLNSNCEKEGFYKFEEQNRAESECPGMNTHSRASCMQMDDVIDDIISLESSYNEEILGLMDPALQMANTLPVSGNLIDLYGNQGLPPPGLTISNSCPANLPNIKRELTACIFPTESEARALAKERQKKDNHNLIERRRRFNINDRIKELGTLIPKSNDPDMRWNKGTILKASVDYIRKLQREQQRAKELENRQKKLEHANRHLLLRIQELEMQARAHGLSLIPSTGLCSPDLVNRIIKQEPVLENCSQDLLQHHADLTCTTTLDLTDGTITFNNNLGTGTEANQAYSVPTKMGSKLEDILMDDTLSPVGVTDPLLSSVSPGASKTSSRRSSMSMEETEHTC
Nature of the assay: TRPM1 promoter luciferase signal decrease, dose response, MITF inhibitor project, cell-based, SK-MEL-5, cherry-picked, set 3 (AID 493073). Format: functional.

The source made the active and inactive calls. The rule behind the calls is not given here.

A word on the AC50: it is the concentration giving half of the maximal activity seen. For `CCN(CC)CCNC(=O)c1ccc(NC(=O)c2cccc(S(=O)(=O)N3c4ccccc4CC3C)c2)cc1` (stereo unspecified), the AC50 is 10.5 µM (active).

Source of the values: ChEMBL document CHEMBL1201862, “PubChem BioAssay data set” (2004).
